In EP0115820A2, “Cephalosporin derivatives and process for their preparation” (Kaken Pharmaceutical Co., Ltd., priority 1983, dated 1984):

What was measured:
Assay in all cases: Minimum inhibitory concentration (MIC)
Format in all cases: cell-based
[1] = test system: Pseudomonas aeruginosa E-2; conditions: E2; Pseudomonas aeruginosa E-2; bacterial suspension 10^6 cells/ml; sodium salts tested; read-out: Minimum inhibitory concentration
Excerpt: (§1) The cephalosporin derivatives of the present invention are novel substances, and the antimicrobial activities of their sodium salts are shown by the minimum inhibitory concentrations (MIC, µg/ml) in Table 1, as compared with a typical known cephalosporin compound.

[2] = test system: Escherichia coli NIHJ JC-2; conditions: NIHJJC2; Escherichia coli NIHJ JC-2; bacterial suspension 10^6 cells/ml; sodium salts tested; read-out: Minimum inhibitory concentration
Excerpt: as §1

[3] = test system: Klebsiella pneumoniae No. 42; conditions: Klebsiella pneumoniae No. 42; bacterial suspension 10^6 cells/ml; sodium salts tested; read-out: Minimum inhibitory concentration
Excerpt: as §1

[4] = test system: Pseudomonas aeruginosa Y-1; conditions: Y1; Pseudomonas aeruginosa Y-1; bacterial suspension 10^6 cells/ml; sodium salts tested; read-out: Minimum inhibitory concentration
Excerpt: as §1

[5] = test system: Serratia marcescens No. 16-2; conditions: NO.162; Serratia marcescens No. 16-2; bacterial suspension 10^6 cells/ml; sodium salts tested; read-out: Minimum inhibitory concentration
Excerpt: as §1

[6] = test system: Pseudomonas aeruginosa K-13; conditions: K13; Pseudomonas aeruginosa K-13; bacterial suspension 10^6 cells/ml; sodium salts tested; read-out: Minimum inhibitory concentration
Excerpt: as §1

[7] = test system: Proteus vulgaris GN-76; conditions: GN76; Proteus vulgaris GN-76; bacterial suspension 10^6 cells/ml; sodium salts tested; read-out: Minimum inhibitory concentration
Excerpt: as §1

[8] = test system: Staphylococcus aureus 209 P JC-1; conditions: 209PJC1; Staphylococcus aureus 209 P JC-1; bacterial suspension 10^6 cells/ml; sodium salts tested; read-out: Minimum inhibitory concentration
Excerpt: as §1

| SMILES | MIC [1] [µg/mL] | MIC [2] [µg/mL] | MIC [3] [µg/mL] | MIC [4] [µg/mL] | MIC [5] [µg/mL] | MIC [6] [µg/mL] | MIC [7] [µg/mL] | MIC [8] [µg/mL] |
| --- | --- | --- | --- | --- | --- | --- | --- | --- |
| CC(=O)OCC1=C(C(=O)O)N2C(=O)[C@@H](NC(=O)C(NC(=O)c3ccc(O)cc3)c3csc(N)n3)[C@H]2SC1 (mixture of isomers) [Example 24, 7β-[DL-2-(4-hydroxybenzoylamino)-2-(2-aminothiazol-4-yl)acetamido]cephalosporic acid] | 25 | 3.12 | 6.25 | 50 | > 200 | 25 | 25 | 0.39 |
| CO[C@@]1(NC(=O)C(NC(=O)c2ccc(O)c(O)c2)c2csc(N)n2)C(=O)N2C(C(=O)O)=C(COC(C)=O)CS[C@@H]21 (mixture of isomers) [Example 9, 7α-methoxy-7β-[DL-2-(3,4-dihydroxy-benzoylamino)-2-(2-aminothiazol-4-yl)acetamidolcephalosporic acid] | 0.39 | 12.5 | 0.39 | 0.39 | 3.12 | 0.78 | 3.12 | 1.56 |
| CCOC(=O)Oc1ccc(C(=O)NC(C(=O)N[C@@H]2C(=O)N3C(C(=O)O)=C(COC(C)=O)CS[C@H]23)c2csc(N)n2)cc1OC(=O)OCC (mixture of isomers) [Example 19, 7β-[DL-2-(3,4-diethoxycarbonyloxy-benzoylamino)-2-(2-aminothiazol-4-yl)acetamido]-cephalosporic acid] | 0.2 | 0.39 | 0.05 | 0.05 | 6.25 | 0.2 | 0.39 | 0.39 |
| CC(=O)OCC1=C(C(=O)O)N2C(=O)[C@@H](NC(=O)C(NC(=O)c3ccccc3O)c3csc(N)n3)[C@H]2SC1 (mixture of isomers) [Example 22, 7β-[DL-2-(2-hydroxybenzoylamino)-2-(2-aminothiazol-4-yl)acetamido]cephalosporic acid] | 50 | 3.12 | 3.12 | 100 | > 200 | 25 | 6.25 | 0.39 |
| CC(=O)Oc1cccc(C(=O)NC(C(=O)N[C@@H]2C(=O)N3C(C(=O)O)=C(CSc4nnnn4C)CS[C@H]23)c2csc(N)n2)c1OC(C)=O (mixture of isomers) [Example 4, 7β-[DL-2-(2,3-diacetoxybenzoylamino)-2-(2-aminothiazol-4-yl)acetamidol-3-(l-methyl-lH-tetrazol-5-yl-thiomethyl)-3-cephem-4-carboxylic acid] | 1.56 | 3.12 | 1.56 | 0.78 | 200 | 0.39 | 3.12 | 1.56 |
| CCOC(=O)Oc1ccc(C(=O)NC(C(=O)N[C@@H]2C(=O)N3C(C(=O)O)=C(CSc4nnnn4C)CS[C@H]23)c2csc(N)n2)cc1OC(=O)OCC (mixture of isomers) [Example 5, 7β-[DL-2-(3,4-diethoxycarbonyloxy-benzoylamino)-2-(2-aminothiazol-4-yl)acetamido]-3-(l-methyl-lH-tetrazol-5-yl-thiomethyl)-3-cephem-4-carboxylic acid] | 0.39 | 0.78 | 0.2 | 0.1 | 50 | 0.2 | 6.25 | 0.39 |
| CC(=O)OCC1=C(C(=O)O)N2C(=O)[C@@H](NC(=O)C(NC(=O)c3ccc(O)c(O)c3)c3csc(N)n3)[C@H]2SC1 (mixture of isomers) [Example 20, 7β-[DL-2-(3,4-dihydroxybenzoylamino)-2-(2-aminothiazol-4-yl)acetamido]cephalosporic acid] | 0.1 | 0.39 | 0.05 | 0.05 | 6.25 | 0.2 | 0.2 | 0.39 |
| CC(=O)OCC1=C(C(=O)O)N2C(=O)[C@@H](NC(=O)C(NC(=O)c3cccc(O)c3O)c3csc(N)n3)[C@H]2SC1 (mixture of isomers) [Example 21, 7β-[DL-2-(2,3-dihydroxybenzoylamino)-2-(2-aminothiazol-4-yl)acetamido]cephalosporic acid] | 0.39 | 1.56 | 0.39 | 3.12 | > 200 | 0.78 | 1.56 | 3.12 |
| CC(=O)Oc1ccc(C(=O)NC(C(=O)N[C@@H]2C(=O)N3C(C(=O)O)=C(CSc4nnnn4C)CS[C@H]23)c2csc(N)n2)cc1OC(C)=O (mixture of isomers) [Example 1, 7β-[DL-2-(3,4-diacetoxybenzoylamino)-2-(2-aminothiazol-4-yl)acetamido]-3-(1-methyl-1H-tetrazol-5-yl-thiomethyl)-3-cephem-4-carboxylic acid] | 0.2 | 0.2 | 0.1 | 0.05 | 6.25 | 0.2 | 0.39 | 0.78 |
| CO[C@@]1(NC(=O)C(NC(=O)c2ccc(OC(C)=O)c(OC(C)=O)c2)c2csc(N)n2)C(=O)N2C(C(=O)O)=C(CSc3nnnn3C)CS[C@@H]21 (mixture of isomers) [Example 10, 7α-methoxy-7β-[DL-2-(3,4-diacetoxy-benzoylamino)-2-(2-aminothiazol-4-yl)acetamidol-3-(1-methyl-lH-tetrazol-5-yl-thiomethyl)-3-cephem-4-carboxylic acid] | 0.2 | 6.25 | 0.2 | 0.2 | 3.12 | 0.2 | 1.56 | 0.78 |
| CC(=O)OCC1=C(C(=O)O)N2C(=O)[C@@H](NC(=O)C(NC(=O)c3cccc(OC(C)=O)c3OC(C)=O)c3csc(N)n3)[C@H]2SC1 (mixture of isomers) [Example 14, 7β-[DL-2-(2,3-diacetoxybenzoylamino)-2-(2-aminothiazol-4-yl)acetamido]cephalosporic acid] | 0.39 | 1.56 | 0.39 | 0.2 | 12.5 | 0.39 | 0.78 | 3.12 |
| CCOC(=O)Oc1ccc(C(=O)NC(C(=O)N[C@]2(OC)C(=O)N3C(C(=O)O)=C(COC(C)=O)CS[C@@H]32)c2csc(N)n2)cc1OC(=O)OCC (mixture of isomers) [Example 13, 7α -methoxy-7β-[DL-2-(3,4-diethoxy-carbonyloxybenzoylamino)-2-(2-aminothiazol-4-yl)-acetamido]cephalosporic acid] | 0.78 | 12.5 | 0.39 | 0.78 | 3.12 | 1.56 | 6.25 | 1.56 |
| CO[C@@]1(NC(=O)C(NC(=O)c2cc(OC(C)=O)c(OC(C)=O)c(OC(C)=O)c2)c2csc(N)n2)C(=O)N2C(C(=O)O)=C(CSc3nnnn3C)CS[C@@H]21 (mixture of isomers) [Example 11, 7α-methoxy-7β-[DL-2-(3,4,5-triacetoxy-benzoylamino)-2-(2-aminothiazol-4-yl)acetamido]-3-(1-methyl-lH-tetrazol-5-yl-thiomethyl)-3-cephem-4-carboxylic acid] | 0.39 | 6.25 | 0.39 | 0.78 | 6.25 | 0.78 | 3.12 | 6.25 |
| CC(=O)OCC1=C(C(=O)O)N2C(=O)[C@@H](NC(=O)C(NC(=O)c3cccc(O)c3)c3csc(N)n3)[C@H]2SC1 (mixture of isomers) [Example 23, 73-[DL-2-(3-hydroxybenzoylamino)-2-(2-aminothiazol-4-yl)acetamidolcephalosporic acid] | > 200 | 6.25 | 12.5 | > 200 | > 200 | > 200 | 25 | 0.39 |
| CC(=O)OCC1=C(C(=O)O)N2C(=O)[C@@H](NC(=O)C(NC(=O)c3cc(O)c(O)c(O)c3)c3csc(N)n3)[C@H]2SC1 (mixture of isomers) [Example 25, 7β-[DL-2-(3,4,5-trihydroxy-benzoylamino)-2-(2-aminothiazol-4-yl)acetamido]-cephalosporic acid] | 0.2 | 0.2 | 0.1 | 0.1 | > 100 | 0.39 | 1.56 | 0.2 |
| CO[C@@]1(NC(=O)C(NC(=O)c2cccc(OC(C)=O)c2OC(C)=O)c2csc(N)n2)C(=O)N2C(C(=O)O)=C(COC(C)=O)CS[C@@H]21 (mixture of isomers) [Example 8, 7α-methoxy-7β-(DL-2-(2,3-diacetoxy-benzoylamino)-2-(2-aminothiazol-4-yl)acetamido]-cephalosporic acid] | 1.56 | 25 | 0.78 | 3.12 | 3.12 | 6.25 | 3.12 | 6.25 |
